The values that follow come from patent US9315463B2, “Cyclohexylamine derivatives having β2 adrenergic agonist and M3 muscarinic antagonist activities” (Almirall, S.A., priority 2010, dated 2016).

Where two headings read alike, the source gives them in different places.

Assay [1] concerns the target human muscarinic M3 receptor (Homo sapiens (Human), UniProt P20309). Description: Human muscarinic M3 receptor binding assay ([3H]-NMS, CHO-K1 membranes). The protocol:
Test 2: Human Muscarinic M1, M2, M3, M4 and M5Receptors Binding Assays
The study of binding to human muscarinic M1, M2, M3, M4 and M5 receptors was performed using commercial membranes (Perkin Elmer) prepared from CHO-K1 cells. Radioligand binding experiments were conducted in 96 polypropylene well plates in a total volume of 200 μl. All reagents were dissolved in assay binding buffer (PBS with calcium and magnesium, SIGMA), except compounds that were dissolved in DMSO 100%. Non-specific binding (NSB) was measured in the presence of 1 μM atropine. [3H]-NMS was used as the radioligand at a concentration of 1 nM for M2, M3 and M5 and 0.3 nM for M1 and M4. [3H]-NMS and antagonists were incubated with membranes that express human muscarinic receptors M1, M2, M3, M4 and M5 at concentrations of 8.1, 10, 4.9, 4.5 and 4.9 μg/well, respectively.
After an incubation period of two hours with gentle shaking, 150 μl of the reaction mix were transferred to 96 GF/C filter plates (Millipore), previously treated with wash buffer (Tris 50 mM; NaCl 100 mM; pH: 7.4), containing 0.05% PEI (Sigma) during one hour. Bound and free [3H]-NMS were separated by rapid vacuum filtration in a manifold from Millipore and washed four times with ice cold wash buffer. After drying 30 min, 30 μl of OPTIPHASE Supermix were added to each well and radioactivity quantified using a Microbeta microplate scintillation counter.
The affinity of each test compound to the receptors was determined by using ten different concentrations ran in duplicate. IC50s were calculated using Activity Base software from IDBS and the four parameters-log equation.

In assay [2] the target is human adrenergic beta2 receptor (Homo sapiens (Human), UniProt P07550). Description: Human adrenergic β2 receptor binding assay (3H-CGP12177, Sf9 membranes). The protocol:
Test 1: Human Adrenergic β1 and β2 Receptor Binding Assays
The study of binding to human adrenergic beta1 and beta2 receptors was performed using commercial membranes prepared from Sf9 cells where they are overexpressed (Perkin Elmer). The membrane suspensions (16 μg/well for beta1 and 5 μg/well for beta2) in assay buffer (75 mM Tris/HCl with 12.5 mM MgCl2 and 2 mM EDTA pH=7.4) were incubated with 0.14 or 0.6 nM of 3H-CGP12177 (Amersham) for beta 1 and beta 2 receptors respectively in a final volume of 250 μl, in GFC Multiscreen 96 well plates (Millipore) previously treated with assay buffer containing 0.3% PEI (Sigma). Non specific binding was measured in the presence of 1 μM propanolol. Incubation was maintained for 60 minutes at room temperature and with gentle shaking. The binding reactions were terminated by filtration and washing with 2.5 volumes of Tris/HCl 50 mM pH=7.4. The affinity of each test compound to the receptor was determined by using ten different concentrations ran in duplicate. IC50s were calculated using Activity Base software from IDBS and the four parameters-log equation.

The mark [3] stands for this setting: [3H]-NMS displacement, read-out: Binding IC50, nM M3.
The mark [4] stands for this setting: 3H-CGP12177 displacement, read-out: Binding IC50, nM β2.

What is called IC50 is the concentration needed to halve the response being measured.

Sequence of human adrenergic beta2 receptor (P07550 whole entry): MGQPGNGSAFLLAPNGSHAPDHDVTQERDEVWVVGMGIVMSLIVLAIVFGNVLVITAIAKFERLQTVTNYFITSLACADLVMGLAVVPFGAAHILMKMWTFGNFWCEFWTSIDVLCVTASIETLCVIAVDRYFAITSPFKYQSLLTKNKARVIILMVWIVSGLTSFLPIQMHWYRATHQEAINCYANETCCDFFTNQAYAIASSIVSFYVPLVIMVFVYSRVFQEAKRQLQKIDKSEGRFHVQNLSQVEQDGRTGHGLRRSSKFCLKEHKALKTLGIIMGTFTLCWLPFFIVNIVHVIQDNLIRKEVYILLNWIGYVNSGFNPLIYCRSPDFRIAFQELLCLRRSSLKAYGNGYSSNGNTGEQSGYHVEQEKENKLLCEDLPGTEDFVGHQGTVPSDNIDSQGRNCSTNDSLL
Sequence of human muscarinic M3 receptor (P20309 whole entry): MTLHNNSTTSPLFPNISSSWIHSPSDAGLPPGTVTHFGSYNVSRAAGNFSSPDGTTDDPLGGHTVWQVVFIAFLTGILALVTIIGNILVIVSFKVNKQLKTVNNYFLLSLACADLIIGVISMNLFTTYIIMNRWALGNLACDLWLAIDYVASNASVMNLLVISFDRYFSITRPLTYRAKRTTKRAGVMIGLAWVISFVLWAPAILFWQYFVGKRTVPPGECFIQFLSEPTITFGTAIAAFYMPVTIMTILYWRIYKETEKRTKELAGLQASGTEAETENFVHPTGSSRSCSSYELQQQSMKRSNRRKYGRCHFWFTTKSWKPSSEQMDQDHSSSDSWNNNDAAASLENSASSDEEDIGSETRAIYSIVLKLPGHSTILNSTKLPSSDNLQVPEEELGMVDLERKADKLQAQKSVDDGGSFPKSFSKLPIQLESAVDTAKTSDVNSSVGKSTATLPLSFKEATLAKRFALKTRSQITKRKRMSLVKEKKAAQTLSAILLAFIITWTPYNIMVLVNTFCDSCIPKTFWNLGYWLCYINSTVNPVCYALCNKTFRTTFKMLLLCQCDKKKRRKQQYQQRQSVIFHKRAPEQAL

For the compound `COc1cc(NC(=O)CCN(C)[C@H]2CC[C@](C)(OC(=O)C(O)(c3cccs3)c3cccs3)CC2)c(Cl)cc1CNC[C@H](O)c1ccc(O)c2[nH]c(=O)ccc12` [Example 13, trans-4-[(3-{[2-chloro-4-({[(2R)-2-hydroxy-2-(8-hydroxy-2-oxo-1,2-dihydroquinolin-5-yl)ethyl]amino}methyl)-5-methoxyphenyl]amino}-3-oxopropyl)(methyl)amino]-1-methylcyclohexyl hydroxy(di-2-thienyl)acetate], the IC50 stood at 2.1 nM in assay [1] (setting [3]) and 2.2 nM in assay [2] (setting [4]).

For `COc1cc(NC(=O)CCN(C)[C@H]2CC[C@H](OC(=O)C(O)(c3cccs3)c3cccs3)CC2)c(Cl)cc1CCNC[C@H](O)c1ccc(O)c2[nH]c(=O)ccc12` [Example 20, trans-4-[(3-{[2-chloro-4-(2-{[(2R)-2-hydroxy-2-(8-hydroxy-2-oxo-1,2-dihydroquinolin-5-yl)ethyl]amino}ethyl)-5-methoxyphenyl]amino}-3-oxopropyl)-(methyl)amino]cyclohexyl hydroxy(di-2-thienyl)acetate hydrofluoride (1:2)], the results for the concentration for half-maximal inhibition (IC50) in assay [1] (setting [3]) and in assay [2] (setting [4]) were 0.7 nM and 5.3 nM, respectively.

With `COc1cc(NC(=O)CCN(C)[C@H]2CC[C@H](OC(=O)C(O)(c3cccs3)c3cccs3)CC2)c(F)cc1CNC[C@H](O)c1ccc(O)c2[nH]c(=O)ccc12` [Example 16, trans-4-[(3-{[2-fluoro-4-({[(2R)-2-hydroxy-2-(8-hydroxy-2-oxo-1,2-dihydroquinolin-5-yl)ethyl]amino}methyl)-5-methoxyphenyl]amino}-3-oxopropyl)(methyl)amino]-cyclohexyl hydroxy(di-2-thienyl)acetate], the IC50 is 2 nM in assay [1] (setting [3]) and 4.8 nM in assay [2] (setting [4]).

For `CN(CCCCCCCCCNC[C@H](O)c1ccc(O)c2[nH]c(=O)ccc12)C1CCC(OC(=O)C(O)(c2cccs2)c2cccs2)CC1` (stereo partly drawn) [Example 1, trans-4-[(9-{[(2R)-2-hydroxy-2-(8-hydroxy-2-oxo-1,2-dihydroquinolin-5-yl)ethyl]-amino}nonyl)(methyl)amino]cyclohexyl hydroxy(di-2-thienyl)acetate formiate (2:1)], the IC50 in assay [1] (read-out: Binding IC50, nM M3, [3H]-NMS displacement) stood at 0.2 nM; in assay [2] (read-out: Binding IC50, nM β2, 3H-CGP12177 displacement), 6.4 nM.

Turning to `COc1cc(NC(=O)OCCN(C)[C@H]2CC[C@H](OC(=O)[C@](O)(c3cccs3)C3CCCC3)CC2)c(Cl)cc1CNC[C@H](O)c1ccc(O)c2[nH]c(=O)ccc12` [Example 29, trans-4-[{2-[({[2-chloro-4-({[(2R)-2-hydroxy-2-(8-hydroxy-2-oxo-1,2-dihydroquinolin-5-yl)ethyl]amino}methyl)-5-methoxyphenyl]amino}carbonyl)-oxy]ethyl}(methyl)amino]cyclohexyl (2S)-cyclopentyl(hydroxy)-2-thienylacetate], the IC50 in assay [1] (setting [3]) is 3.8 nM; in assay [2] (setting [4]), 1.1 nM.

In the case of `COc1cc(NC(=O)OCCN(C)[C@H]2CC[C@H](OC(=O)C(O)(c3cccs3)c3cccs3)CC2)c(C#N)cc1CNC[C@H](O)c1ccc(O)c2[nH]c(=O)ccc12` [Example 22, trans-4-[{2-[({[2-cyano-4-({[(2R)-2-hydroxy-2-(8-hydroxy-2-oxo-1,2-dihydroquinolin-5-yl)ethyl]amino}methyl)-5-methoxyphenyl]amino}carbonyl)-oxy]ethyl}(methyl)amino]cyclohexyl hydroxy(di-2-thienyl)acetate hydrofluoride (1:2)], the IC50 came to 1.4 nM in assay [1] (setting [3]) and 4.5 nM in assay [2] (setting [4]).

Take `COc1cc(NC(=O)OCCN(C)[C@H]2CC[C@H](OC(=O)[C@](O)(c3ccccc3)C3CCCC3)CC2)c(Cl)cc1CNC[C@H](O)c1ccc(O)c2[nH]c(=O)ccc12` [Example 28, trans-4-[{2-[({[2-chloro-4-({[(2R)-2-hydroxy-2-(8-hydroxy-2-oxo-1,2-dihydroquinolin-5-yl)ethyl]amino}methyl)-5-methoxyphenyl]amino}carbonyl)oxy]ethyl}-(methyl)amino]cyclohexyl (2R)-cyclopentyl (hydroxy)phenylacetate]: the IC50 was found to be 8.5 nM in assay [1] (setting [3]) and 1.3 nM in assay [2] (setting [4]).

With `COc1cc(OCCCCN(C)[C@H]2CC[C@H](OC(=O)C(O)(c3cccs3)c3cccs3)CC2)c(Cl)cc1CNC[C@H](O)c1ccc(O)c2[nH]c(=O)ccc12` [Example 25, trans-4-[{4-[2-chloro-4-({[(2R)-2-hydroxy-2-(8-hydroxy-2-oxo-1,2-dihydroquinolin-5-yl)ethyl]amino}methyl)-5-methoxyphenoxy]butyl}(methyl)amino]cyclohexyl hydroxy(di-2-thienyl)acetate hydrofluoride (1:2)], the values for the 50% inhibitory concentration (IC50) in assay [1] (setting [3]) and in assay [2] (setting [4]) were 0.3 nM and 9.6 nM, respectively.

As for `COc1cc(NC(=O)OCCN(C)[C@H]2CC[C@H](OC(=O)C(O)(c3cccs3)c3cccs3)CC2)c(Cl)cc1CNC[C@H](O)c1ccc(O)c2[nH]c(=O)ccc12` [Example 12, trans-4-[{2-[({[2-chloro-4-({[(2R)-2-hydroxy-2-(8-hydroxy-2-oxo-1,2-dihydroquinolin-5-yl)ethyl]amino}methyl)-5-methoxyphenyl]amino}carbonyl)oxy]ethyl}-(methyl)amino]cyclohexyl hydroxy(di-2-thienyl)acetate hydrofluoride], the IC50 in assay [1] (setting [3]) and in assay [2] (setting [4]) was 1.6 nM each time.

In the case of `CN(CCC(=O)Nc1cc(F)c(CNC[C@H](O)c2ccc(O)c3[nH]c(=O)ccc23)cc1F)[C@H]1CC[C@H](OC(=O)C(O)(c2cccs2)c2cccs2)CC1` [Example 18, trans-4-[(3-{[2,5-difluoro-4-({[(2R)-2-hydroxy-2-(8-hydroxy-2-oxo-1,2-dihydroquinolin-5-yl)ethyl]amino}methyl)phenyl]amino}-3-oxopropyl)-(methyl)amino]cyclohexyl hydroxy(di-2-thienyl)acetate hydrofluoride (1:2)], the values for the IC50 in assay [1] (setting [3]) and in assay [2] (setting [4]) were 1.6 nM and 13 nM, respectively.

`COc1cc(NC(=O)OCCN(C)[C@H]2CC[C@H](OC(=O)C(O)(c3cccs3)c3cccs3)CC2)c(Cl)cc1CNC[C@H](O)c1ccc(O)c2c1OCC(=O)N2` [Example 26, trans-4-[{2-[({[2-chloro-4-({[(2R)-2-hydroxy-2-(5-hydroxy-3-oxo-3,4-dihydro-2H-1,4-benzoxazin-8-yl)ethyl]amino}methyl)-5-methoxyphenyl]amino}carbonyl)-oxy]ethyl}(methyl)amino]cyclohexyl hydroxy(di-2-thienyl)acetate]: the IC50 worked out at 1.7 nM in assay [1] (setting [3]) and 0.38 nM in assay [2] (setting [4]).
